Where two headings read alike, the source gives them in different places.
Legend:
Assay type in all cases: in vivo
Phaedon cochleariae = assay: whole plant or invertebrate
From the text: (§1) The expected action for a given combination of two active ingredients can be calculated according to S. R. Colby, Weeds 15 (1967), 20-22 as follows:
(§2) • X is the kill rate, expressed in % of the untreated control, in the case of use of active ingredient A in an application rate of m g/ha or in a concentration of m ppm, • Y is the kill rate, expressed in % of the untreated control, in the case of use of active ingredient B in an application rate of n g/ha or in a concentration of n ppm, and • E is the kill rate, expressed in % of the untreated control, in the case of use of active ingredients A and B in application rates of m and n g/ha or in a concentration of m and n ppm, then
(§3) If the actual kill rate is greater than that calculated, the kill rate of the combination is superadditive, which means that a synergistic effect is present. In this case, the kill rate actually observed must be greater than the value calculated from the above formula for the expected kill rate (E).
(§4) • 78 parts by weight of acetone • 1.5 parts by weight of dimethylformamide Emulsifier: 0.5 part by weight of alkylaryl polyglycol ether
(§5) To produce an appropriate active ingredient formulation, 1 part by weight of active ingredient is mixed with the stated amounts of solvent and emulsifier, and the concentrate is diluted with emulsifier-containing water to the desired concentration.
Cabbage leaves (Brassica oleracea) are treated by spraying with the active ingredient formulation of the desired concentration and populated with larvae of the mustard beetle (Phaedon cochleariae) while the leaves are still moist.
After the desired period of time, the kill rate in % is determined. 100% means that all beetle larvae have been killed; 0% means that none of the beetle larvae have been killed. The kill rates determined are entered into Colby's formula.

Myzus persicae = assay: whole plant or invertebrate
From the text: as §3, §4, §5
After the desired time, the kill in % is determined. 100% means that all aphids have been killed; 0% means that no aphids have been killed. The kill rates determined are entered into Colby's formula.

Tetranychus urticae = assay: Tetranychus test (OP-resistant/spray treatment); conditions: applied individually
From the text: as §1, §2, §3, §4, §5
Discs of bean leaves (Phaseolus vulgaris) infested by all stages of the two-spotted spider mite (Tetranychus urticae) are sprayed with an active ingredient formulation of the desired concentration.
After the desired period of time, the effect in % is determined. 100% means that all of the spider mites have been killed; 0% means that none of the spider mites have been killed.

[1] = Phaedon cochleariae, 144 h, 0.16 g/ha, after 6 d, read-out: Kill rate in % after 6 d
[2] = Myzus persicae, 144 h, 0.8 g/ha, after 6 d, read-out: Kill rate in % after 6 d
[3] = Tetranychus urticae, 48 h, after 2 d, read-out: Kill rate in % after 2 d
[4] = Myzus persicae, 144 h, 0.16 g/ha, after 6 d, read-out: Kill rate in % after 6 d
[5] = Myzus persicae, 24 h, 0.8 g/ha, after 1 d, read-out: Kill rate in % after 1 d
[6] = Myzus persicae, 24 h, 20 g/ha, after 1 d, read-out: Kill rate in % after 1 d
[7] = Tetranychus urticae, 144 h, after 6 d, read-out: Kill rate in % after 6 d

## Fc1cncc(-c2ncc(-c3cccc(-c4ncccn4)n3)s2)c1 [2-{6-[2-(5-fluoropyridin-3-yl)-1,3-thiazol-5-yl]pyridin-2-yl}pyrimidine]
Phaedon cochleariae; [1]
  pest or weed control at 0.16 g/ha: 0%
Myzus persicae; [2]
  pest or weed control at 0.8 g/ha: 70%

## CCOCn1c(-c2ccc(Cl)cc2)c(C#N)c(Br)c1C(F)(F)F [chlorfenapyr]
Tetranychus urticae; [3]
  pest or weed control at 4 g/ha: 10%
Myzus persicae; [4]
  pest or weed control at 0.16 g/ha: 0%
Myzus persicae; [2]
  pest or weed control at 0.8 g/ha: 0%

## Cc1c(COC(=O)[C@@H]2[C@H](/C=C(\Cl)C(F)(F)F)C2(C)C)cccc1-c1ccccc1 (racemic) [bifenthrin]
Tetranychus urticae; Tetranychus urticae, 48 h, 0.16 g/ha, after 2 d, read-out: Kill rate in % after 2 d
  pest or weed control at 0.16 g/ha: 0%
Myzus persicae; [5]
  pest or weed control at 0.8 g/ha: 80%

## emamectin benzoate
Phaedon cochleariae; 0.032 g/ha, after 6 d
  Kill rate in % after 6 d: 0%
Tetranychus urticae; 0.032 g/ha, after 2 d
  Kill rate in % after 2 d: 0%
Myzus persicae; 0.16 g/ha, after 1 d
  Kill rate in % after 1 d: 0%
Myzus persicae; 0.8 g/ha, after 1 d
  Kill rate in % after 1 d: 0%

## O=C(NC(=O)c1ccccc1Cl)Nc1ccc(OC(F)(F)F)cc1 [triflumuron]
Phaedon cochleariae; Phaedon cochleariae, 144 h, 4 g/ha, after 6 d, read-out: Kill rate in % after 6 d
  pest or weed control at 4 g/ha: 0%
Myzus persicae; Myzus persicae, 144 h, after 6 d, read-out: Kill rate in % after 6 d
  pest or weed control at 4 g/ha: 0%
Myzus persicae; Myzus persicae, 144 h, 20 g/ha, after 6 d, read-out: Kill rate in % after 6 d
  pest or weed control at 20 g/ha: 0%

## Cc1cc(Cl)cc(C)c1C1=C(O)C2(CCC3(CC2)OCCO3)NC1=O [11-(4-chloro-2,6-dimethylphenyl)-12-hydroxy-1,4-dioxa-9-azadispiro[4.2.4.2]tetradec-11-en-10-one]
Myzus persicae; [2]
  pest or weed control at 0.8 g/ha: 0%

## CC1(C)[C@H](C=C(Cl)Cl)[C@H]1C(=O)OCc1c(F)c(F)cc(F)c1F [transfluthrin]
Myzus persicae; [6]
  pest or weed control at 20 g/ha: 70%

## CC1=NNC(=O)N(/N=C/c2cccnc2)C1 [pymetrozine]
Myzus persicae; Myzus persicae, 24 h, 100 g/ha, after 1 d, read-out: Kill rate in % after 1 d
  pest or weed control at 100 g/ha: 0%

## CS/C(C)=N\OC(=O)N(C)SN(C)C(=O)O/N=C(\C)SC [thiodicarb]
Tetranychus urticae; [3]
  pest or weed control at 100 g/ha: 0%
Myzus persicae; [6]
  pest or weed control at 20 g/ha: 0%

## CC1(C)C(C=C(Cl)Cl)C1C(=O)OC(C#N)c1cccc(Oc2ccccc2)c1 (stereo not drawn) [alpha-cypermethrin]
Tetranychus urticae; [3]
  pest or weed control at 4 g/ha: 0%
Myzus persicae; Myzus persicae, 24 h, 0.16 g/ha, after 1 d, read-out: Kill rate in % after 1 d
  pest or weed control at 0.16 g/ha: 70%

## N#Cc1ccc(CC(=NNC(=O)Nc2ccc(OC(F)(F)F)cc2)c2cccc(C(F)(F)F)c2)cc1 (mixture of isomers) [metaflumizone]
Myzus persicae; 20 g/ha, after 1 d
  Kill rate in % after 1 d: 0%

## CCOP(=S)(OCC)Oc1nc(Cl)c(Cl)cc1Cl [chlorpyrifos]
Tetranychus urticae; [7]
  pest or weed control at 100 g/ha: 0%
Myzus persicae; Myzus persicae, 24 h, after 1 d, read-out: Kill rate in % after 1 d
  pest or weed control at 4 g/ha: 80%

## Cc1cc(C(F)(C(F)(F)F)C(F)(F)F)ccc1NC(=O)c1cccc(I)c1C(=O)NC(C)(C)CS(C)(=O)=O [flubendiamide]
Phaedon cochleariae; Phaedon cochleariae, 144 h, 0.8 g/ha, after 6 d, read-out: Kill rate in % after 6 d
  pest or weed control at 0.8 g/ha: 0%
Tetranychus urticae; [3]
  pest or weed control at 20 g/ha: 0%

## CCOP(=O)(SC(C)CC)SC(C)CC (centres unmarked) [cadusaphos]
Tetranychus urticae; [7]
  pest or weed control at 20 g/ha: 0%
Myzus persicae; [6]
  pest or weed control at 20 g/ha: 0%

## O=[N+]([O-])NC1=NCCN1Cc1ccc(Cl)nc1 [imidacloprid]
Myzus persicae; [5]
  pest or weed control at 0.8 g/ha: 0%

## CNC(=O)c1cc(C#N)cc(C)c1NC(=O)c1cc(Br)nn1-c1ncccc1Cl [cyantraniliprole]
Phaedon cochleariae; 0.16 g/ha, after 2 d
  Kill rate in % after 2 d: 0%
Phaedon cochleariae; [1]
  pest or weed control at 0.16 g/ha: 0%
Myzus persicae; [4]
  pest or weed control at 0.16 g/ha: 0%

## CN1COCN(Cc2cnc(Cl)s2)/C1=N\[N+](=O)[O-] [thiamethoxam]
Myzus persicae; [6]
  pest or weed control at 20 g/ha: 70%

## CC1(C)[C@H](C(=O)O[C@H](C#N)c2cccc(Oc3ccccc3)c2)[C@@H]1C=C(Br)Br [deltamethrin]
Myzus persicae; [5]
  pest or weed control at 0.8 g/ha: 0%

## CNC(=O)Oc1cc(C)c(SC)c(C)c1 [methiocarb]
Myzus persicae; [6]
  pest or weed control at 20 g/ha: 0%

## CN/C(=N\[N+](=O)[O-])NCc1cnc(Cl)s1 [clothianidin]
Myzus persicae; [6]
  pest or weed control at 20 g/ha: 70%
Myzus persicae; [4]
  pest or weed control at 0.16 g/ha: 0%

## CC1(C)[C@H](C(=O)O[C@H](C#N)c2cccc(Oc3ccccc3)c2)[C@@H]1/C=C\C(=O)OC(C(F)(F)F)C(F)(F)F [acrinathrin]
Tetranychus urticae; [3]
  pest or weed control at 0.8 g/ha: 0%
  pest or weed control at 4 g/ha: 20%
Tetranychus urticae; [7]
  pest or weed control at 0.8 g/ha: 40%
Myzus persicae; [5]
  pest or weed control at 0.8 g/ha: 0%

— patent publication US20160037775A1, “ACTIVE INGREDIENT COMBINATIONS HAVING INSECTICIDAL AND ACARICIDAL PROPERTIES” (priority 2010, published 2016)
